Measured values published in patent US6916812B2, “Alpha-aminoamide derivatives as melanocortin agonists” (Bristol-Myers Squibb Company, priority 2001, dated 2005).
Read-outs that look alike come from different tables or passages of the source.

Target: T1, cloned human MC4R (Homo sapiens, UniProt P32245)
T1 construct: made in house; host or cells: Hi5 insect cells (baculovirus infection); membrane preparation
Experiment: Membrane binding assay: competitive inhibition of [125I]NDP-α-MSH binding
Details: for IC50: read-out: MC4R IC50; for inhibition at 10 µM: read-out: Displacement Rate (%) (at 10 μM)

[1] = at 10 μM, [125I]NDP-α-MSH displacement

T1 sequence (P32245 whole entry): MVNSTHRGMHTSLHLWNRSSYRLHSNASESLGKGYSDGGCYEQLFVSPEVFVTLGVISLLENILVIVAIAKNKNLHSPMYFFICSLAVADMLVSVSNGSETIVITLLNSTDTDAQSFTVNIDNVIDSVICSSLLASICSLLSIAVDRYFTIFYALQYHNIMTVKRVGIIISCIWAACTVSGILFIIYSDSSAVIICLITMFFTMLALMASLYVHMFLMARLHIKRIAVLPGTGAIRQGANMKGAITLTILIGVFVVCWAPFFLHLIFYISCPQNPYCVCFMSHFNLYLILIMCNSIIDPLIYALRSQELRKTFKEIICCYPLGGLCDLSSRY

SMILES	Displacement Rate (%) (at 10 μM) [1]	IC50 [µM]	inhibition at 10 µM [1] [%]	inhibition at 10 µM [%]
COc1ccc(Cl)cc1-c1ccc(C[C@H](N)C(=O)N2CCN(Cc3cccc(Cl)c3Cl)CC2)cc1 [Example 327]	+++ (+++ = 91-100)	1.5 to 3		
CCn1c2ccccc2c2cc(CN3CCCN(C(=O)[C@@H](N)Cc4ccc(OCc5ccccc5)cc4)CC3)ccc21 [Example 3]		< 1.5	91 to 100	
N[C@@H](Cc1ccc(OCc2ccccc2)cc1)C(=O)N1CCN(Cc2ccc(-c3ccc(Cl)cc3)o2)CC1 [Example 81]		< 1.5	91 to 100	
Cc1ccccc1CCOc1ccc(C[C@H](N)C(=O)N2CCN(Cc3cccc(Cl)c3Cl)CC2)cc1 [Example 237]	+++ (+++ = 91-100)	< 1.5		
N[C@@H](Cc1ccc(-c2cccc3cccnc23)cc1)C(=O)N1CCN(Cc2cccc(Cl)c2Cl)CC1 [Example 340]		1.5 to 3		71 to 90
N[C@@H](Cc1ccc(OCc2ccccc2)cc1)C(=O)N1CCN(CCCc2ccccc2)CC1 [Example 147]		> 3	35 to 70	
N[C@@H](Cc1ccc(OCc2ccc(F)cc2)cc1)C(=O)N1CCN(Cc2cccc(Cl)c2Cl)CC1 [Example 188]	+++ (+++ = 91-100)	< 1.5		
Cc1ccc(S(=O)(=O)n2cc(CN3CCCN(C(=O)[C@@H](N)Cc4ccc(OCc5ccccc5)cc4)CC3)c3ccccc32)cc1 [Example 18]		< 1.5	91 to 100	
N[C@@H](Cc1ccc(OCc2ccc(-c3ccccc3)cc2)cc1)C(=O)N1CCN(Cc2cccc(Cl)c2Cl)CC1 [Example 198]	+++ (+++ = 91-100)	< 1.5		
CC(C)(C)c1ccc(CN2CCN(C(=O)[C@@H](N)Cc3ccc(OCc4ccccc4)cc3)CC2)cc1 [Example 112]		1.5 to 3	71 to 90	
COc1cccc(-c2ccc(C[C@H](N)C(=O)N3CCN(Cc4cccc(Cl)c4Cl)CC3)cc2)c1 [Example 325]		1.5 to 3	71 to 90	
CC(CCOc1ccc(C[C@H](N)C(=O)N2CCN(Cc3cccc(Cl)c3Cl)CC2)cc1)c1ccccc1 (stereo partly shown) [Example 263]	+++ (+++ = 91-100)	< 1.5		
N[C@@H](Cc1ccc(OCc2ccccc2Br)cc1)C(=O)N1CCN(Cc2cccc(Cl)c2Cl)CC1 [Example 179]	+++ (+++ = 91-100)	< 1.5		
N[C@@H](Cc1ccc(OCc2ccccc2)cc1)C(=O)N1CCN(Cc2ccc(C(F)(F)F)cc2)CC1 [Example 138]		> 3	35 to 70	
CN(C)c1ccc(-c2ccc(C[C@H](N)C(=O)N3CCN(Cc4cccc(Cl)c4Cl)CC3)cc2)cc1 [Example 323]		1.5 to 3	71 to 90	
N[C@@H](Cc1ccc(OCCc2ccc3ccccc3c2)cc1)C(=O)N1CCN(Cc2cccc(Cl)c2Cl)CC1 [Example 256]	+++ (+++ = 91-100)	< 1.5		
N[C@@H](Cc1ccc(OCc2ccccc2)cc1)C(=O)N1CCN(CC2CCCCC2)CC1 [Example 113]		< 1.5	71 to 90	
N[C@@H](Cc1ccc(OCc2ccc(OCc3ccccc3)cc2)cc1)C(=O)N1CCN(Cc2cccc(Cl)c2Cl)CC1 [Example 208]	+++ (+++ = 91-100)	1.5 to 3		
N[C@@H](Cc1ccc(OCc2ccccc2)cc1)C(=O)N1CCCN(C2CCN(CCc3ccccc3)CC2)CC1 [Example 68]		> 3	35 to 70	
O=C([C@H](Cc1ccc(OCc2ccccc2)cc1)NCCc1ccccc1)N1CCN(Cc2cccc(Cl)c2Cl)CC1 [Example 171]		> 3	71 to 90	
N[C@@H](Cc1ccc(OCCc2ccccc2Cl)cc1)C(=O)N1CCN(Cc2cccc(Cl)c2Cl)CC1 [Example 242]	+++ (+++ = 91-100)	< 1.5		
CC(C)c1ccc(-c2ccc(C[C@H](N)C(=O)N3CCN(Cc4cccc(Cl)c4Cl)CC3)cc2)cc1 [Example 332]		> 3	35 to 70	
N[C@@H](Cc1ccc(OCc2ccccc2)cc1)C(=O)N1CCCN(Cc2ccc(Oc3ccccc3)cc2)CC1 [Example 33]		1.5 to 3	71 to 90	
N[C@@H](Cc1ccc(OCCc2ccccc2OCc2ccccc2)cc1)C(=O)N1CCN(Cc2cccc(Cl)c2Cl)CC1 [Example 252]	+++ (+++ = 91-100)	< 1.5		
N[C@@H](Cc1ccc(OCCCc2ccc(OCc3ccccc3)cc2)cc1)C(=O)N1CCN(Cc2cccc(Cl)c2Cl)CC1 [Example 260]	+++ (+++ = 91-100)	< 1.5		
N[C@@H](Cc1ccc(OCc2ccc(Cl)cc2)cc1)C(=O)N1CCN(Cc2cccc(Cl)c2Cl)CC1 [Example 183]	+++ (+++ = 91-100)	< 1.5		
N[C@@H](Cc1ccc(-c2cccc3c2oc2ccccc23)cc1)C(=O)N1CCN(Cc2cccc(Cl)c2Cl)CC1 [Example 336]		< 1.5		91 to 100

Continued, values first:

Displacement Rate (%) (at 10 μM) [1]	IC50 [µM]	inhibition at 10 µM [1] [%]	inhibition at 10 µM [%]	SMILES
	> 3	35 to 70		N[C@@H](Cc1ccc(OCc2ccccc2)cc1)C(=O)N1CCCN(Cc2ccc3ccccc3c2)CC1 [Example 51]
	< 1.5	91 to 100		N[C@@H](Cc1ccc(OCc2ccccc2)cc1)C(=O)N1CCCN(Cc2ccc(C(F)(F)F)cc2)CC1 [Example 25]
	> 3	71 to 90		N[C@@H](Cc1ccc(OCc2ccccc2)cc1)C(=O)N1CCN(Cc2ccccc2[N+](=O)[O-])CC1 [Example 111]
	< 1.5	91 to 100		N[C@@H](Cc1ccc(OCc2ccccc2)cc1)C(=O)N1CCN(Cc2cccc(Cl)c2Cl)CC1 [Example 93]
	> 3	35 to 70		N[C@@H](Cc1ccc(OCc2ccccc2)cc1)C(=O)N1CCCN(Cc2cc(F)ccc2F)CC1 [Example 66]
	< 1.5	91 to 100		CCOc1ccc(CN2CCCN(C(=O)[C@@H](N)Cc3ccc(OCc4ccccc4)cc3)CC2)c(OCC)c1C [Example 24]
	1.5 to 3	91 to 100		N[C@@H](Cc1ccc(OCc2ccccc2)cc1)C(=O)N1CCCN(Cc2ccc(-c3ccccc3)cc2)CC1 [Example 8]
	< 1.5	91 to 100		N[C@@H](Cc1ccc(OCc2ccccc2)cc1)C(=O)N1CCCN(Cc2cccc(Oc3cccc(C(F)(F)F)c3)c2)CC1 [Example 16]
	> 3	35 to 70		N[C@@H](Cc1ccc(OCc2ccccc2)cc1)C(=O)N1CCN(Cc2c(F)cccc2F)CC1 [Example 142]
	1.5 to 3	71 to 90		Cc1ccc(C)c(CN2CCN(C(=O)[C@@H](N)Cc3ccc(OCc4ccccc4)cc3)CC2)c1 [Example 107]
	> 3	71 to 90		N[C@@H](Cc1ccc(OCc2ccccc2)cc1)C(=O)N1CCN(Cc2cccc(F)c2F)CC1 [Example 120]
	< 1.5	91 to 100		N[C@@H](Cc1ccc(OCc2ccccc2)cc1)C(=O)N1CCCN(Cc2cccc(Oc3ccc(Cl)c(Cl)c3)c2)CC1 [Example 19]
	> 3	35 to 70		N[C@@H](Cc1ccc(OCc2ccccc2)cc1)C(=O)N1CCN(Cc2cc(F)ccc2F)CC1 [Example 145]
	> 3	35 to 70		N[C@@H](Cc1ccc(OCc2ccccc2)cc1)C(=O)N1CCCN(Cc2cc3c(cc2[N+](=O)[O-])OCO3)CC1 [Example 77]
